Converted amounts (≈) assume the structure as drawn. “Also recorded” adds a separate entry of the source. Where two headings read alike, the source gives them in different places.
Key:
xanthine oxidase = xanthine oxidase (Homo sapiens, UniProt P47989); test: In vitro inhibition of xanthine oxidase; type: biochemical
Procedure: The xanthine oxidase inhibitory activities of the examined chemical compounds were determined by following the formation of uric acid from xanthine according to the reported method by Bondet and co-workers[46]. […] The results were expressed as IC50 determined from the curve.

[1] = molecular target: T1, human group X (hG-X) sPLA2 (Homo sapiens, UniProt O15496); test: In vitro antiphospholipase activity; type: biochemical
T1 sequence (O15496 43-165): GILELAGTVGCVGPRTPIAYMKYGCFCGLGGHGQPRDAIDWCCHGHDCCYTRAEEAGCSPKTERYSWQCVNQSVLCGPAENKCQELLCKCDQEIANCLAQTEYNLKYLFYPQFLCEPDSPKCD

[2] = molecular target: T2, human group IIA (hG-IIA) sPLA2 (Homo sapiens, UniProt P14555); test: In vitro antiphospholipase activity; type: biochemical
T2 sequence (P14555 21-144): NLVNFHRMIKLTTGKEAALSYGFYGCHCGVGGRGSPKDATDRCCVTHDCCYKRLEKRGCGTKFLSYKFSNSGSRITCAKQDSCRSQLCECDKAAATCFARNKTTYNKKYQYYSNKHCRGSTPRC

[3] = molecular target: T3, human group V (hG-V) sPLA2 (Homo sapiens, UniProt P39877); test: In vitro antiphospholipase activity; type: biochemical
T3 sequence (P39877 21-138): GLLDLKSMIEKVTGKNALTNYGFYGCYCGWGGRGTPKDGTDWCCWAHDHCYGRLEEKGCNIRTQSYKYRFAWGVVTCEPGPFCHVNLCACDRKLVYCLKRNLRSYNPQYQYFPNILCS

[4] = molecular target: Apis mellifera bee venom (AmPLA2) (Apis mellifera, UniProt P00630); test: biochemical
[5] = molecular target: Naja mossambica mossambica sPLA2 (NmPLA2); test: In vitro antiphospholipase activity; type: biochemical; conditions: 20 min preincubation, lecithin substrate, pH 7.6
α-glucosidase = molecular target: T4, α-glucosidase (Saccharomyces cerevisiae, UniProt P53341); test: In vitro inhibition of α-glucosidase activity; type: biochemical
T4 construct: purchased Sigma
Procedure: The colorimetric assay included 2 U of α-glucosidase, 5 mM of 4-NPGP, and 10 mM potassium phosphate buffer, pH 6.9. […] The reading assay was performed using a microplate reader at 405 nm. […] The results were expressed as IC50 determined from the curve.

cathepsin-B = cathepsin-B (Homo sapiens, UniProt P07858); test: In vitro antiprotease activity; type: biochemical
Procedure: (§1) The inhibitory effects of 21 3H-quinazolin-4-one derivatives on several available therapeutically important proteases such as cathepsin-B, collagenase, elastase, thrombin, and trypsin were investigated. […] The protease inhibitory activity was expressed as inhibition percentage, which was determined by comparison with a control experiment. The results were expressed as IC50 values that were determined from the standard curve. A protease inhibitor cocktail (Sigma) was used as the positive control.

collagenase = test: In vitro antiprotease activity; type: biochemical; conditions: 15 min preincubation
Procedure: as §1

elastase = test: In vitro antiprotease activity; type: biochemical; conditions: 15 min preincubation
Procedure: as §1

trypsin = molecular target: T5, trypsin (Bos taurus, UniProt P00760); test: In vitro antiprotease activity; type: biochemical
T5 construct: gene PRSS1
T5 sequence (P00760 24-246): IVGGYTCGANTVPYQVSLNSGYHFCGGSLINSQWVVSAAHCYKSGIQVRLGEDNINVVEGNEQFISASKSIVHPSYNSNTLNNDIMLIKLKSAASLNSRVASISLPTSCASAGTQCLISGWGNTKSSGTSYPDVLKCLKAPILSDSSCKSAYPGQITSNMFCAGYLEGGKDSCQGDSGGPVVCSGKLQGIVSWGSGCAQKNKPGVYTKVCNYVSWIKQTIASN
Procedure: as §1

thrombin = thrombin (Homo sapiens, UniProt P00734); test: In vitro antiprotease activity; type: biochemical
Procedure: as §1

HT-29 cells [6] = test: MTT cell viability assay; type: cell-based, Human
Procedure: (§2) Human CRC cell lines, HT-29 and SW620 cells were grown in RPMI (Invitrogen) containing 10% heat-inactivated foetal bovine serum, 100 µg/ml streptomycin, 100 units/ml penicillin and 2 mmol/l L-glutamine.
(§3) Cell viability was determined using the 3-(4, 5-dimethylthiazolyl-2)–2, 5-diphenyltetrazolium bromide) MTT assay according to Mosmann[40]. 5-Fluorouracil (5-FU) was used as positive control. Briefly, after culturing cells in 96 well plates for 24 h, they were treated with different compounds (30 μg/ml) for 24 h. Freshly prepared MTT (5 mM) solutions were added to the cells and were further incubated for 2 h at 37 °C in 5% CO2. One hundred microliters of dimethyl sulphoxide (DMSO) was added in each well to dissolve the formazan crystal, formed in the reaction during incubation by careful pipetting. The absorbance of the product was measured at 540 nm using a microplate reader. The experiments were performed in triplicate for each condition. The graph illustrates the mean and standard deviation (SD) values of three independent experiments.

SW620 cells [7] = test: MTT cell viability assay; type: cell-based, Human
Procedure: as §2, §3

SW620 cells [8] = test: MTT cell viability assay; type: cell-based; conditions: Homo sapiens, SW-620, read-out: IC50 (cell viability)
Bcl2 = test: Western blotting of anti-apoptotic protein expression; type: cell-based, Human; conditions: SW620 cells, various concentrations, 24 h, immunoblot
Procedure: (§4) Whole cell lysates were prepared using radioimmunoprecipitation assay (RIPA) lysis buffer as described by Al-Khayal and co-workers[41]. Total protein concentration was determined using Bradford protein reagent (Bio-Rad, Hercules, CA). Soluble proteins were loaded on precast TGX gels and were analysed using immunoblotting with anti-Bcl2, anti-BclxL (dilution 1:1000; Santa Cruz Biotechnology, Dallas, TX), and anti-β-actin (1:10,000 Sigma, St. Louis, MO). Reactivity was detected using horseradish peroxidase-conjugated secondary antibodies and chemiluminescence by Clarity Western ECL substrate (Bio-Rad). Membrane was developed using C-Digit Blot Scanner (LI-COR, Hamburg, Germany).
(§5) SW620 cells were treated with various concentrations of 15d for 24 h.

BclxL = test: as above; type: cell-based, Human; conditions: SW620 cells, various concentrations, 24 h, immunoblot
Procedure: as §4, §5

HT-29 cells [9] = test: MTT cell viability assay; type: cell-based; conditions: Homo sapiens, HT-29, read-out: IC50 (cell viability)
HT-29 cells [10] = test: Cytotoxicity assay using the xCELLigence system; type: cell-based, Human; conditions: HT-29, 20 and 40 µg/ml, 3 d, xCELLigence RTCA
Procedure: (§6) The optimal seeding concentration for proliferation of HT-29 was determined. HT-29 cells (5000 cell in 150 µl medium/well) and SW620 cells (12,000 cell in 150 µl medium/well) were seeded in 16 well plates (E-plate 16-ACEA Biosciences Inc., San Diego, CA) as described in the xCELLigence Real Time Cell Analyzer (RTCA) DP instrument manual provided by the manufacturer. After 24 h, 20 and 40 µg/ml of compound 15d were added and the experiments were allowed to run for another 3 d. Baseline cell indexes were calculated for at least two measurements from three replicate experiments.

SW620 cells [11] = test: Cytotoxicity assay using the xCELLigence system; type: cell-based, Human; conditions: SW620, 20 and 40 µg/ml, 3 d, xCELLigence RTCA
Procedure: as §6

Chain of Apis mellifera bee venom (AmPLA2) (P00630 34-167 limits assumed): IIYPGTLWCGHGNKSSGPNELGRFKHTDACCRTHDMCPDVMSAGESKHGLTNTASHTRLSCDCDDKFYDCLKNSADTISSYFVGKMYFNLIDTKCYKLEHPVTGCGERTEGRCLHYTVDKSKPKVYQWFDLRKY
Chain of xanthine oxidase (P47989 whole entry, species assumed): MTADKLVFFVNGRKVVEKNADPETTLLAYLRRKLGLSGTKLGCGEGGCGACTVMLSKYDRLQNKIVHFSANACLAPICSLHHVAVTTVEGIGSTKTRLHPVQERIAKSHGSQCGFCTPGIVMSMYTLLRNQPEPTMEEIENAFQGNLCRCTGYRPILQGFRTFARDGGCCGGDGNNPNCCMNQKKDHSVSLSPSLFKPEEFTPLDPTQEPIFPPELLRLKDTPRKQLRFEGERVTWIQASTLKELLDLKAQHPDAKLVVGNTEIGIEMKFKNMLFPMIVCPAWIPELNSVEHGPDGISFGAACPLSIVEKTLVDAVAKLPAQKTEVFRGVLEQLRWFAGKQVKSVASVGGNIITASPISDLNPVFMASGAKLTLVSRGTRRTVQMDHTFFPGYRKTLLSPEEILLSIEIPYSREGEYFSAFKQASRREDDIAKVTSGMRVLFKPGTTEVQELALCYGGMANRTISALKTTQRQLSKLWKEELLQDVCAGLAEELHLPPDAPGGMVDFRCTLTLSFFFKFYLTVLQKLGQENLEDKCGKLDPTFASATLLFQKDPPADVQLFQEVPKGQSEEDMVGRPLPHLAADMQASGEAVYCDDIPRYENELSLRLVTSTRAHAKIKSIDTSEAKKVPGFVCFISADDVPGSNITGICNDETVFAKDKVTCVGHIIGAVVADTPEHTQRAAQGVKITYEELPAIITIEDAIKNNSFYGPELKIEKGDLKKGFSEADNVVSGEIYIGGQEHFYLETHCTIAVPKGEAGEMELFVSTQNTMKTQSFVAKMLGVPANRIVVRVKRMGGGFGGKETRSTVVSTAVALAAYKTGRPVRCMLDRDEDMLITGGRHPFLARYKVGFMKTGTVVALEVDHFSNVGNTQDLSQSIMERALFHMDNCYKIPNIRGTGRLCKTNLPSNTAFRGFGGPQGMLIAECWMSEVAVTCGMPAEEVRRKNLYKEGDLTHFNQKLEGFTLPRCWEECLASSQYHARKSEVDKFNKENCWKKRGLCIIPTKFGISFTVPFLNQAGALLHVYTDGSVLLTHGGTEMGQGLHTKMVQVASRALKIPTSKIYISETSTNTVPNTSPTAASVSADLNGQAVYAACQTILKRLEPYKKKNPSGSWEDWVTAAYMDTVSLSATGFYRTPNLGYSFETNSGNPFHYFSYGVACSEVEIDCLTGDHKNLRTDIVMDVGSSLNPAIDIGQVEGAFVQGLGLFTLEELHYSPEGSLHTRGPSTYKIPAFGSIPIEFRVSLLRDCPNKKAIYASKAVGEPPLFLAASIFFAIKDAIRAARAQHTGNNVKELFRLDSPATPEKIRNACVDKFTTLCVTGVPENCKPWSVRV
T4 sequence (P53341 whole entry): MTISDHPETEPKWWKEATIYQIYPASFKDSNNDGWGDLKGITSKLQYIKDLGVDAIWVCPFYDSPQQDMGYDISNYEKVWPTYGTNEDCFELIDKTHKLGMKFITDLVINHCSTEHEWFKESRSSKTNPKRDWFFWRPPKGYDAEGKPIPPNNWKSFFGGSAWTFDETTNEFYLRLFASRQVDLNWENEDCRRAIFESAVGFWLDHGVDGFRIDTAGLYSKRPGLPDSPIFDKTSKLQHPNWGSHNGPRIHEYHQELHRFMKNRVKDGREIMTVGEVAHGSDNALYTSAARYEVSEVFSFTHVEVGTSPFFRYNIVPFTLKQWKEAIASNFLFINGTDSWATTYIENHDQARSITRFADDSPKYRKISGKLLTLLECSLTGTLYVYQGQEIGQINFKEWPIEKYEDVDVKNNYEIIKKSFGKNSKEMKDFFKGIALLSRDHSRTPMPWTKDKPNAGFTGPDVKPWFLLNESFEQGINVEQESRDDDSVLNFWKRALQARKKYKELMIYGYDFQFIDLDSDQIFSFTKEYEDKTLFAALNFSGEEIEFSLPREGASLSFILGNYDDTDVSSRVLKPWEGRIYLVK

COc1cc(-n2c(C)nc3ccccc3c2=O)cc(OC)c1OC [Compound 5a, 2 -Methyl-3-(3,4,5-trimethoxy-phenyl)-3H-quinazolin-4-one]
IC50 (xanthine oxidase): 22.2 µM | IC50 [1]: 23.4 µM | IC50 [2]: 21.4 µM | IC50 [3]: 29.4 µM | IC50 [4]: 16.9 µM | mean IC50 against NmPLA2 [5]: 6.00 ± 0.71 µg/mL | IC50 (α-glucosidase): 64.3 µM | IC50 (cathepsin-B): 25.3 µM | mean IC50 against Collagenase (collagenase): 12.25 ± 1.77 µg/mL | mean IC50 against Elastase (elastase): 23.5 ± 0.71 µg/mL | IC50 (trypsin): 88.9 µM | IC50 (thrombin): 67.4 µM | melting point: 88 to 90 °C

Cc1ccc2nc(SCC(=O)Nc3c(C)cccc3C)n(-c3ccccc3)c(=O)c2c1 [Compound 15d, N-(2,6-Dimethyl-phenyl)-2-(6-methyl-4-oxo-3-phenyl-3,4-dihydro-quinazolin-2-ylsulfanyl) -acetamide]
IC50 (xanthine oxidase): 165 µM | IC50 ([1]; 20 min preincubation, lecithin substrate, pH 7.6, read-out: mean IC50 against hG-X (converted)): 54.7 µM | IC50 [2]: 16.6 µM | IC50 ([3]; 20 min preincubation, lecithin substrate, pH 7.6, read-out: mean IC50 against hG-V (converted)): 24.4 µM | IC50 [4]: 14 µM | inhibition of cell viability (in words) (HT-29 cells [6]; HT-29, 30 μg/ml, MTT): potently capable of inhibiting cell viability | viability at 30 µg/mL (HT-29 cells [6]; Homo sapiens, HT-29, 24 h, read-out: cell viability): 38% | viability at 30 µg/mL (SW620 cells [7]; Homo sapiens, SW-620, 24 h, read-out: cell viability): 36.7% | inhibition of cell viability (in words) (SW620 cells [7]; SW620, 30 μg/ml, MTT): potently capable of inhibiting cell viability | mean IC50 against NmPLA2 [5]: 8.50 ± 2.12 µg/mL | IC50 (SW620 cells [8]): ~20 µg/mL (≈ 46.6 µM) | expression of Bcl2 (Bcl2): down regulating; also recorded: inhibited | expression of BclxL (BclxL): down regulating; also recorded: inhibited | IC50 (cathepsin-B; 15 min preincubation, read-out: mean IC50 against Cathepsin-B (converted)): 9.31 µM | mean IC50 against Collagenase (collagenase): 10.50 ± 0.71 µg/mL | mean IC50 against Elastase (elastase): 15.50 ± 2.12 µg/mL | IC50 (trypsin; 15 min preincubation, read-out: mean IC50 against Trypsin (converted)): 32.6 µM | IC50 (thrombin; 15 min preincubation, read-out: mean IC50 against Thrombin (converted)): 39.6 µM | IC50 (HT-29 cells [9]): ~20 µg/mL (≈ 46.6 µM) | cell proliferation, real time (in words) (HT-29 cells [10]): inhibit the cell proliferation | cell proliferation, real time (in words) (SW620 cells [11]): inhibit the cell proliferation | melting point: 229 to 230 °C
